Data reported in ChEMBL document CHEMBL1139186, “Design and evaluation of 'Linkerless' hydroxamic acids as selective HDAC8 inhibitors” (Bioorg Med Chem Lett, 2007).
Activity calls are given as the source filed them. The rule behind the calls is not given here.

Assays:
Histone deacetylase 1 = Histone deacetylase 1 (Homo sapiens, UniProt Q13547); assay: Inhibition of human HDAC1 by [3H]acetyl histone peptide assay
[1] = target: T1, Protein deacetylase HDAC6 (Homo sapiens, UniProt Q9UBN7); assay: Inhibition of human HDAC6 by [3H]acetyl histone peptide assay
T1 sequence (Q9UBN7 whole entry): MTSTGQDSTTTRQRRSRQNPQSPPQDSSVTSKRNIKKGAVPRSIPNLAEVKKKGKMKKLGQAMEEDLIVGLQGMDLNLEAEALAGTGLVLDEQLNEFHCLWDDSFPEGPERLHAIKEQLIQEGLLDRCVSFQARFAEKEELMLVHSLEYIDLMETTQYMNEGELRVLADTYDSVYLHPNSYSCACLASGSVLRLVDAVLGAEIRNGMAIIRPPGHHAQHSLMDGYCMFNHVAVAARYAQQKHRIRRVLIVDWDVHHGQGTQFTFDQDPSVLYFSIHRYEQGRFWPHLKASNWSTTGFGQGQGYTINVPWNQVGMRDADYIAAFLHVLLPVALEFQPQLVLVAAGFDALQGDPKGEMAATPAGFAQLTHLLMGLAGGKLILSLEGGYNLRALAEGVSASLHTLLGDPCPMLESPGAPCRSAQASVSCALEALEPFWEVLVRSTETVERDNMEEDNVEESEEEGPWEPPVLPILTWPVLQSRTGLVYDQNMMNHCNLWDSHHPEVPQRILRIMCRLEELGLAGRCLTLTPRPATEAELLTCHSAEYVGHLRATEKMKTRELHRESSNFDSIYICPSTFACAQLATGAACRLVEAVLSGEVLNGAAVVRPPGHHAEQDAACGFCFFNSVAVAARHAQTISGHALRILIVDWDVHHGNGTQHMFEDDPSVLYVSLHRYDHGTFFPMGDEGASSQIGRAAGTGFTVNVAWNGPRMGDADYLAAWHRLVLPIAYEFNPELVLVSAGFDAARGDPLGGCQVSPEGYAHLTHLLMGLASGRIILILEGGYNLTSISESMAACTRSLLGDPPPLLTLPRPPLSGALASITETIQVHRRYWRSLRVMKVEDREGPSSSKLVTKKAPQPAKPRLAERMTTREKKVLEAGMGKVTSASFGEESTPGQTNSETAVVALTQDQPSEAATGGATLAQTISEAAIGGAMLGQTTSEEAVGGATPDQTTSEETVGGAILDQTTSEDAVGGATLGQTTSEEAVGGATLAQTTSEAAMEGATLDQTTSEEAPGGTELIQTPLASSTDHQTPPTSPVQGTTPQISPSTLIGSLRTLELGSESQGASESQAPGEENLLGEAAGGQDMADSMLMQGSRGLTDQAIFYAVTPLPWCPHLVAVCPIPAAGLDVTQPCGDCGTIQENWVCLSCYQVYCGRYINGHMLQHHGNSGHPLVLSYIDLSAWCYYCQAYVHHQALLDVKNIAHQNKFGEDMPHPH

Histone deacetylase 8 = target: T2, Histone deacetylase 8 (Homo sapiens, UniProt Q9BY41)
T2 sequence (Q9BY41 whole entry): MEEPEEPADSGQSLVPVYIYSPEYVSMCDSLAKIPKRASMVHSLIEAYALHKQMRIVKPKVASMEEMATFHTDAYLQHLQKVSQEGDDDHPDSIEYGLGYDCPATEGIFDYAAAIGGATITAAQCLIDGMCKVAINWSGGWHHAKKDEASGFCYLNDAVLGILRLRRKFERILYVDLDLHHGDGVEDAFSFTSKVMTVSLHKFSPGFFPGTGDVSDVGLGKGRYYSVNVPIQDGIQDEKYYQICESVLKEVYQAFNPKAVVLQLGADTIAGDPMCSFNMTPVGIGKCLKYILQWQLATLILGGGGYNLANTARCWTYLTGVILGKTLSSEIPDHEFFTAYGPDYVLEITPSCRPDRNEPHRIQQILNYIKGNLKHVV
Description: Inhibition of human HDAC8 by [3H]acetyl histone peptide assay

HeLa [2] = assay: Increase in lysine-acetylated tubulin levels in HeLa cells by Western blot; format: functional, cell-based; conditions: Homo sapiens
HeLa [3] = assay: Increase in lysine-acetylated histone H4 levels in HeLa cells by Western blot; format: functional, cell-based; conditions: Homo sapiens
HEK293 [4] = assay: Increase in lysine-acetylated tubulin levels in HEK293 cells by Western blot; format: functional, cell-based; conditions: Homo sapiens
HEK293 [5] = assay: Increase in lysine-acetylated histone H4 levels in HEK293 cells by Western blot; format: functional, cell-based; conditions: Homo sapiens

Chain of Histone deacetylase 1 (Q13547 whole entry): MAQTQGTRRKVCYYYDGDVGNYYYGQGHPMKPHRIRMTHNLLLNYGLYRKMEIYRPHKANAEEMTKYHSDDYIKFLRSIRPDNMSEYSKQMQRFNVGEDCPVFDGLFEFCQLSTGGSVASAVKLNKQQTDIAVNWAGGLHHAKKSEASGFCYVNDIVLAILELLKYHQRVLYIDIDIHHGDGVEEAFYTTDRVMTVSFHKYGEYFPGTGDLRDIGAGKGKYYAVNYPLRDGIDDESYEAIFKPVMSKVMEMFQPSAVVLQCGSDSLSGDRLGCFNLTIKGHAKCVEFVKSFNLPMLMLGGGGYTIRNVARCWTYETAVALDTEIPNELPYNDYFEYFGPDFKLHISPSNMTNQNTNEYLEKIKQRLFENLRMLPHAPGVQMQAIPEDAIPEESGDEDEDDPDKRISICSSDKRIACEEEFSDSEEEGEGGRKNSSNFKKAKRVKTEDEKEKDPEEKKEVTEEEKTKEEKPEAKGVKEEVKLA

SMILES | IC50 (Histone deacetylase 1) [µM] | IC50 [1] [µM] | IC50 (Histone deacetylase 8) [µM] | Activity (HeLa [2]) | Activity (HeLa [3]) | Activity (HEK293 [4]) | Activity (HEK293 [5])
O=C(NO)c1cccc2ccccc12 | > 100 | > 100 | 14 |  |  |  | 
O=C(/C=C/c1cccc2ccccc12)NO | > 100 | 82 | 0.7 | Active | Active | Active | Active
O=C(NO)c1ccc(-c2cccc3ccccc23)cc1 | > 100 | 55 | 0.3 |  |  |  | 

Now from value to compound, other results behind:

IC50 (Histone deacetylase 1) [µM] | IC50 [1] [µM] | IC50 (Histone deacetylase 8) [µM] | SMILES | Activity (HeLa [2]) | Activity (HeLa [3]) | Activity (HEK293 [4]) | Activity (HEK293 [5])
> 100 | > 100 | 20 | O=C(NO)c1cccc(-c2ccccc2)c1 |  |  |  | 
 |  | 6.6 | O=C(NO)c1cccc(Oc2ccccc2)c1 |  |  |  | 
